Data reported in US9422309B2, “3-O-heteroaryl-ingenol” (LEO LABORATORIES LIMITED, priority 2012, dated 2016).

Key:
Format in all cases: cell-based
[1] = tested on: Primary human epidermal keratinocytes, HeKa; assay: HeKa cytokine release (IL-8); conditions: 6 h at 37° C., normalised to 1.5×10^−7 M PEP0005, read-out: HeKa cytokine release (IL-8) Rel EC50 range
Method: Primary human epidermal keratinocytes, HeKa, are seeded (10.000 cells/well) in 96-well plates the day before the assay. Test compounds are diluted in DMSO (dimethyl sulfoxide) and further diluted in assay medium and pipetted into wells of 96 well-plates containing HeKa cells. The plates are incubated for 6 h at 37° C. in humidified air with 5% CO2. Plates are centrifuged briefly to spin down cells at 4° C., the supernatant is removed and analysed by Meso Scale Discovery (MSD) 4-spot cytokine assay (Pro-inflammatory II Ultra Sensitive kit, MSD, MD, USA). The MSD assay employs a sandwich immunoassay format where capture antibodies are coated in a patterned array on the bottom of the wells of a 4-Spot-Multi-MSD plate. Standard samples are incubated in the MULTI-SPOT plates as well, and the cytokine (IL-8) binds to its corresponding capture antibody spot. The cytokine level is quantitated on a SECTOR™ Imager using a cytokine-specific Detection Antibody labelled with MSD SULFO-TAG™ reagent.
(§1) Test compound titration curves are fitted to a four-parameter sigmoidal curve after normalizing the effect of the test compound to the effect of the positive control (1.5×10^−7 M PEP0005). Rel EC50 denotes the concentration of test compound producing an effect that is midway between the fitted top and bottom.

HeLa cells = assay: Necrosis assay; conditions: Homo sapiens, 0.5 h, 30 min at 37° C., PrestoBlue, normalised to 4 10^−4 M PEP0005/ingenol mebutate, read-out: HeLa necrosis EC50 range
Method: HeLa cells (ATCC CCL-002) were grown in minimal essential medium (Invitrogen catalog no. 42360) containing 10% fetal bovine serum, 100 IU/ml penicillin and 100 μg/ml streptomycin. 4,000-6,000 cells were seeded into 96-well black ViewPlates-plates, clear bottom, (Perkin Elmer) in 100 μl medium and incubated overnight. Compounds were dissolved and pre-diluted in DMSO in 96-well polypropylene plates (Greiner) in a concentration range of 15 μM to 600 μM. At the time of the experiment cell plates were placed on heating blocks at 37° C., medium was removed and 40 μl fresh, pre-warmed medium was added per well. Cells were incubated for 15 min before addition of compounds. In parallel, 3 μl of compounds were diluted with 197 μl growth medium on a Tecan freedom-EVO pipetting station using 250 μl/s pipetting speed, in order to ensure effective mixing of the highly concentrated compound solutions with the aqueous phase.
These pre-dilution plates were then equilibrated on heating blocks at 37° C. for 10 min. 80 μl pre-diluted compound were transferred manually to the corresponding wells containing HeLa cells yielding compound concentrations of 10 μM to 400 μM. Control conditions were 1% DMSO in growth medium (100% viability) and 400 μM ingenol mebutate in growth medium (0% viability). Plates were incubated on the heating blocks at 37° C. for 30 min. At the end of the incubation 10 μl PrestoBlue reagent (Invitrogen) were added to each well, plates were sealed with black seal, followed by incubation at 37° C. for 10 min with gentle shaking (150 rpm). Subsequently, plates were placed at room temperature for 20-30 min. Plates were read immediately after on an Envision Fluorescence reader (Perkin Elmer) with excitation at 535 nm and emission at 630 nm. Test compound titration curves were fitted to a four-parameter sigmoidal curve after normalizing the effect of the test compound to the effect of the positive control (4 10^−4 M PEP0005/ingenol mebutate). Abs EC50 denotes the concentration of test compound producing 50% effect.

[2] = tested on: PMN's (polymorphonuclear leukocytes); assay: Neutrophil oxidative burst; conditions: Leukocyte, 40 min; 40 min incubation at rt; normalised to 5×10^−7 M PEP0005; read-out: Neutrophil oxidative burst Rel EC50 range
Method: PMN's (polymorphonuclear leukocytes) are isolated and purified from fresh buffy coats by sequential sedimentation, density centrifugation and lysis of contaminating erythrocytes. In brief, buffy coats are incubated with 2% methocel for 30-45 min to differentially sediment red blood cells. The leukocyte-rich supernatant is transferred to lymphoprep tubes to remove mononuclear cells by density centrifugation (400×g, 30 min). The pellet is resuspended and any remaining erythrocytes lysed using 0.2% NaCl for 30 sec before restoring isotonicity by the addition of 1.2% NaCl. This step is repeated until the cell pellet appears relatively free of red blood cells. Cells are resuspended in DPBS (Dulbecco's Phosphate Buffered Saline) (w.o. Ca^2+, Mg^2+) and the concentration adjusted to 1.4×10^6 cells/ml in HBSS (Hanks Balanced Salt solution) (w Ca^2+, Mg^2+) containing 0.1% BSA (Bovine Serum Albumin) and 5 mM glucose just prior to assay initiation. Titrated reference and test compounds are pre-mixed with HE (Hydroethidine) (10 μM final assay concentration) before addition to 96-well plates containing 2.5×10^5 cells. Following 40 min incubation at rt, changes in the respiratory burst is estimated by measuring fluorescence at 579 nm (excitation: 485 nm) using an Envision plate reader.
as §1, with “(5×10^−7” for “(1.5×10^−7”, “bottom. Abs EC50 is the concentration of test compound that provokes a response corresponding to 50% of the maximal effect associated with the positive control (5×10^−7 M PEP0005).” for “bottom.”

CC1=C[C@]23C(=O)[C@@H](C=C(CO)[C@@H](O)[C@]2(O)[C@H]1Oc1nccc2ccccc12)[C@H]1[C@@H](C[C@H]3C)C1(C)C [Compound 119, 3-O-(1-Isoquinolyl)-ingenol]
EC50 [1]: < 0.02 µM
EC50 (HeLa cells): 150 to 350 µM
EC50 [2]: 0.02 to 0.1 µM

CC1=C[C@]23C(=O)[C@@H](C=C(CO)[C@@H](O)[C@]2(O)[C@H]1Oc1nccn1C1CCCC1)[C@H]1[C@@H](C[C@H]3C)C1(C)C [Compound 120, 3-O-(1-Cyclopentylimidazol-2-yl)-ingenol]
EC50 [1]: < 0.02 µM
EC50 (HeLa cells): 150 to 350 µM
EC50 [2]: < 0.02 µM

CC1=C[C@]23C(=O)[C@@H](C=C(CO)[C@@H](O)[C@]2(O)[C@H]1Oc1nccc2ccsc12)[C@H]1[C@@H](C[C@H]3C)C1(C)C [Compound 123, 3-O-(Thieno[2,3-c]pyridine-7-yl)-ingenol]
EC50 [1]: < 0.02 µM
EC50 (HeLa cells): ≥ 350 µM
EC50 [2]: 0.02 to 0.1 µM

CC1=C[C@]23C(=O)[C@@H](C=C(CO)[C@@H](O)[C@]2(O)[C@H]1Oc1ncccc1C)[C@H]1[C@@H](C[C@H]3C)C1(C)C [Compound 124, 3-O-(3-Methyl-2-pyridyl)-ingenol]
EC50 [1]: ≥ 0.1 µM
EC50 (HeLa cells): ≥ 350 µM
EC50 [2]: ≥ 0.1 µM

CC1=C[C@]23C(=O)[C@@H](C=C(CO)[C@@H](O)[C@]2(O)[C@H]1Oc1noc2cc(Cl)ccc12)[C@H]1[C@@H](C[C@H]3C)C1(C)C [Compound 125, 3-O-(6-Chloro-1,2-benzoxazol-3-yl)-ingenol]
EC50 [1]: < 0.02 µM
EC50 (HeLa cells): < 150 µM
EC50 [2]: < 0.02 µM

CC1=C[C@]23C(=O)[C@@H](C=C(CO)[C@@H](O)[C@]2(O)[C@H]1Oc1nccc2sccc12)[C@H]1[C@@H](C[C@H]3C)C1(C)C [Compound 127, 3-O-(Thieno[3,2-c]pyridine-4-yl)-ingenol]
EC50 [1]: 0.02 to 0.1 µM
EC50 (HeLa cells): 150 to 350 µM
EC50 [2]: 0.02 to 0.1 µM

CC1=C[C@]23C(=O)[C@@H](C=C(CO)[C@@H](O)[C@]2(O)[C@H]1Oc1noc2cccc(F)c12)[C@H]1[C@@H](C[C@H]3C)C1(C)C [Compound 128, 3-O-(4-Fluoro-1,2-benzoxazol-3-yl)-ingenol]
EC50 [1]: < 0.02 µM
EC50 (HeLa cells): 150 to 350 µM
EC50 [2]: < 0.02 µM

COc1cccnc1O[C@H]1C(C)=C[C@]23C(=O)[C@@H](C=C(CO)[C@@H](O)[C@]12O)[C@H]1[C@@H](C[C@H]3C)C1(C)C [Compound 129, 3-O-(3-Methoxy-pyridin-2-yl)-ingenol]
EC50 [1]: ≥ 0.1 µM
EC50 (HeLa cells): ≥ 350 µM
EC50 [2]: ≥ 0.1 µM

COc1ccc2onc(O[C@H]3C(C)=C[C@]45C(=O)[C@@H](C=C(CO)[C@@H](O)[C@]34O)[C@H]3[C@@H](C[C@H]5C)C3(C)C)c2c1 [Compound 130, 3-O-(5-Methoxy-1,2-benzoxazol-3-yl)-ingenol]
EC50 [1]: < 0.02 µM
EC50 (HeLa cells): 150 to 350 µM
EC50 [2]: < 0.02 µM

CC1=C[C@]23C(=O)[C@@H](C=C(CO)[C@@H](O)[C@]2(O)[C@H]1Oc1noc2ccc(Cl)cc12)[C@H]1[C@@H](C[C@H]3C)C1(C)C [Compound 131, 3-O-(5-Chloro-1,2-benzoxazol-3-yl)-ingenol]
EC50 [1]: < 0.02 µM
EC50 (HeLa cells): < 150 µM
EC50 [2]: < 0.02 µM

COc1ccc2c(O[C@H]3C(C)=C[C@]45C(=O)[C@@H](C=C(CO)[C@@H](O)[C@]34O)[C@H]3[C@@H](C[C@H]5C)C3(C)C)noc2c1 [Compound 132, 3-O-(6-Methoxy-1,2-benzoxazol-3-yl)-ingenol]
EC50 [1]: < 0.02 µM
EC50 (HeLa cells): ≥ 350 µM
EC50 [2]: < 0.02 µM

CC1=C[C@]23C(=O)[C@@H](C=C(CO)[C@@H](O)[C@]2(O)[C@H]1Oc1noc(C(C)C)n1)[C@H]1[C@@H](C[C@H]3C)C1(C)C [Compound 133, 3-O-(5-Isopropyl-1,2,4-oxadiazol-3-yl)-ingenol]
EC50 [1]: 0.02 to 0.1 µM
EC50 (HeLa cells): ≥ 350 µM
EC50 [2]: 0.02 to 0.1 µM
